For series [1], the system named is C. albicans and A. brasiliensis. As to the kind of experiment: Challenge testing of preservative effect, antifungal (Method A or Method B). Type of series: cell-based. The protocol:
Challenge testing of various compositions of the present disclosure to determine preservative effects was performed using the following methods: (1) Method A or (2) Method B. As used herein, a “count” refers to a typical measurement for measuring microbial (i.e., bacterial and fungal) growth.
Method B: • (1) Bacteria were evaluated and were considered to meet a threshold requirement by the following parameters: (i) […] measured no less than 3 log reduction from the initial calculated count after an incubation period of 14 days (i.e., 2 weeks), and (ii) bacteria measured no increase from an incubation period starting at the 14 day count and lasting until the 28 day count (i.e., 2 week incubation period of a 4 week/1 month experiment). • (2) C. albicans was evaluated and considered to meet a threshold requirement by the following parameters: (i) […] measured no less than a 1 log reduction after a 14 day incubation period, and (ii) C. albicans measured no increase from an incubation period starting at the 14 day count and lasting until the to the 28 day count (i.e., 2 week incubation period of a 4 week/1 month experiment). • (3) A. brasiliensis was evaluated and considered to meet a threshold requirement by the following parameters: A. brasiliensis measured no increase from the initial calculated count after an incubation period of 14 days (i.e., a 2 week incubation) and an incubation period of 28 days (i.e., a 4 week/1 month incubation).
Using Method A described above, if the formulation meets the requirements defined under Method A, the microbiological risk is considered to be tolerable (the cosmetic product is protected against microbial proliferation that may present a potential risk for the user) and the cosmetic product is deemed to meet the requirements of this International Standard without additional rationale.
For example, the pump is considered a protective device for risk reduction, i.e., prevention against bacterial and/or fungal growth.

The nature of series [2]: Gel formation with vitamin C derivatives. The class given is physicochemical. The settings on record: for time to gel formation: 100 mg vitamin C derivative in 15 mL of 2% silk solution. The protocol:
The Tables in FIGS. 89A-89B summarize embodiments of gels of the present disclosure. Ascorbic acid-2-glucoside was the most successful vitamin C derivative at gel formation with gel being formed in a 2% silk solution in 3 days. […] In all cases 100 mg of vitamin C derivative was mixed in 15 mL of 2% silk solution, and all gels had the same appearance as gels created with ascorbic acid.
Gels were also cast with combinations of two vitamin C options. In each case, at least one of the vitamin C options was known to cause gelation (L-ascorbic acid or ascorbic acid-2-glucoside). All combination gels were able to gel at 1% total vitamin C additive concentration. […] Without wishing to be bound by theory, it appears there is a relationship between vitamin C concentration, silk concentration, and gelation. An increase in vitamin C at a given concentration of silk will result in a longer time to gelation or inhibit gelation. This may be due to the vitamin C molecule physically blocking interaction between silk protein fragments or cross-linking of silk protein. Modification to pH may allow additional concentrations of vitamin C and derivatives thereof to be added.
Ascorbyl tetraisopalmitate is a highly viscous, oil soluble liquid that might need the help of an emulsifier to possible dissolve in aqueous silk solution.

Series [3] in a line: HPLC chromatograms of vitamin C degradation, aged silk films vs unstabilized vitamin C. Type of series: physicochemical. The settings on record: after 1 hour at ambient conditions without chemical stabilization. As to the method:
FIGS. 36A and 36B show two HPLC chromatograms from samples comprising vitamin C. […] No degradation products were visible. FIG. 59 is a table summarizing the vitamin C concentration in silk protein fragment-films (2% silk films air dried at RT) of the present disclosure. In FIG. 59 processing conditions included 100° C. extraction for 20 min, RT rinse, LiBr in 60° C. oven for 4-6 hours. FIG. 60 is a table summarizing the stability of vitamin C in chemically stabilized solutions. FIGS. 89A-89B are tables summarizing vitamin C stability in SPF gels without chemical stabilizers as compared to chemically stabilized vitamin C in competitive anti-aging skincare products. […] Without wishing to be bound by theory, it appears there is a relationship between vitamin C concentration, silk concentration, and gelation. An increase in vitamin C at a given concentration of silk will result in a longer time to gelation or inhibit gelation. This may be due to the vitamin C molecule physically blocking interaction between silk protein fragments or cross-linking of silk protein.

The mark [4] stands for this setting: in USSSC formulation, concentration of 0.1%.

With `COc1ccc(C(=O)[O-])cc1.[Na+]` [Sodium anisate], the antifungal preservative effectiveness entry in series [1] (in SER formulation, folded in after gelation, 0.5-1.0%, pH of ˜5.2-5.9, with lemongrass or rosehip oil) is “effective antifungal preservative”; in series [1] (in SSC formulation, folded in after gelation, 0.1-1.0% and pH of 4.2-5.9), “effective antifungal preservative”; in series [1] (in USSSC formulation, folded in after gelation, 0.5-1.0% and pH of 4.2-5.9), “effective antifungal preservative”.

Turning to `O=C([O-])c1ccccc1.[Na+]` [Sodium benzoate], the antifungal preservative effectiveness entry in series [1] (in SER formulation, concentration of 0.1% and pH of 3.28) is on record as “effective antifungal preservative”; in series [1] (in SSC formulation, concentration of 0.1% and pH of 3.7 and 4.2) it was “effective antifungal preservative”; in series [1] (setting [4]), “effective antifungal preservatives”.

`O=C1O[C@H]([C@@H](O)CO)C(O)=C1O[C@H]1O[C@H](CO)[C@@H](O)[C@H](O)[C@H]1O` [Ascorbic acid-2-glucoside, Ascorbic Acid-2-Glucoside]: the “time to gel formation” value in series [2] is listed as 3 days.

For the compound `O=C1O[C@H]([C@@H](O)CO)C(O)=C1O` [vitamin C, L-ascorbic acid], in series [3], the “vitamin C degradation products in HPLC chromatogram” value was “degradation products are visible”.

Regarding `O=C1O[C@H]([C@@H](O)CO)C([O-])=C1OP(=O)([O-])[O-].[Na+].[Na+].[Na+]` [Sodium ascorbyl phosphate from Aromantic, Sodium Ascorbyl Phosphate], in series [2], the “time to gel formation” value is “failed to create a gel”.

With `C/C=C/C=C/C(=O)[O-].[K+]` [potassium sorbate], in series [1] (setting [4]), the antifungal preservative effectiveness result is “effective antifungal preservatives”.

Regarding `O=C1O[C@H]([C@@H](O)CO)C([O-])=C1OP(=O)([O-])[O-].[Na+].[Na+].[Na+]` [Sodium ascorbyl phosphate from DSM supplier], the “time to gel formation” value in series [2] amounted to 28 days.

In the case of `CCCCCCCCC(CCCCCC)C(=O)OC[C@H](OC(=O)C(CCCCCC)CCCCCCCC)[C@H]1OC(=O)C(OC(=O)C(CCCCCC)CCCCCCCC)=C1OC(=O)C(CCCCCC)CCCCCCCC` (stereo partly drawn) [Ascorbyl tetraisopalmitate, Ascorbyl Tetraisopalmitate], the “ability to dissolve or disperse in aqueous silk solution” value in series [2] is given as “unable to dissolve or be dispersed”.

The values above are taken from US11260012B2, “Preserved silk protein fragment compositions and articles manufactured therefrom” (Evolved By Nature, Inc., priority 2015, dated 2022).
